Experimental data: patent publication US20250352537A1, “PHARMACEUTICAL COMPOSITIONS OF TRICYCLIC AKR1C3 DEPENDENT KARS INHIBITOR AND METHODS FOR MAKING SAME” (NOVARTIS AG, priority 2022, published 2025)

Tests used:
Assay type in all cases: physicochemical
[1] = Supersaturation / desupersaturation of DMSO solution in FaSSIF-V1; settings: FaSSIF-V1, 37° C.
Description: FIG. 1 is a an illustration of Compound (I) desupersaturation profiles in FaSSIF-V1 when added as DMSO solution at drug loads from 100 to 2000 ppmw
The supersaturation potential of Compound (1) was studied by mixing drug dissolved in 1 mL DMSO into 99 mL FaSSIF-V1 stirred at 37° C. (FIG. 1). At higher drug loads of 500, 1000 or 2000 ppmw (or […]) Compound (1) precipitated practically instantaneously and attained a constant steady state concentration of approx. 20 μg/mL or below within 5 minutes.. At the 90 min final sampling the solids were confirmed to be crystalline Compound (1) by XRPD. At lower drug loads, supersaturation was maintained longer, e.g. approx. 110 μg/mL drug dissolved at 5 min at 200 ppmw drug load and approx. 70 μg/mL drug dissolved till 20 min at 100 ppmw drug load. Situation after desupersaturation was similar as described for higher drug loads.

[2] = Initial stability evaluation of lyophilized solid dispersions (mDSC, UPLC); settings: initial purity of Compound (I) 99.3%
Description: The following example illustrates the initial feasibility assessment of an amorphous solid dispersion formulation. An amorphous solid dispersion (ASD) was initially evaluated as a potential formulation for Compound (1). Solid dispersion screening was performed by lyophilization of solid Compound (1) with a polymer. Miscibility trials of Compound (1) were performed with Kollidon® VA64, HPMC-AS-LF, Eudragit® L100-55, and HPMC 603, by conducting a DSC measurement of the lyophilized material to determine if the material was amorphous or crystalline. […] Kollidon® VA64 at both 50% and 40% drug loading recrystallized after 5 weeks. HPMC-AS-LF and Eudragit® L100-55 remained amorphous under stressed conditions. However, HPMC-AS-LF and Eudragit® L100-55 both have significant impurities after 5 weeks until stressed conditions, according to UPLC analysis.

[3] = Hot melt extrusion (HME) thermal stability; settings: extrusion of compound-polymer mixture at temperatures in excess of 160° C.
Description: A holt melt extrusion (HME) approach was also attempted.

drug dissolved ([1]; at 5 min at 200 ppmw drug load): approx. 110 μg/mL
steady state concentration ([1]; drug loads of 500, 1000 or 2000 ppmw, within 5 minutes): ≤ 20 µg/mL
supersaturation potential ([1]; overall): rather poorly supersaturating
drug dissolved ([1]; till 20 min at 100 ppmw drug load): approx. 70 μg/mL
UPLC (%) ([2]; 3 weeks 50° C./75% RH): 99.09%
UPLC (%) ([2]; 5 weeks 50° C./75% RH): 99.05%
stability on hot melt extrusion [3]: thermal degradation
SMILES: O=C1CC2(CCN(C(=O)NCc3ccc(F)cc3)CC2)Nc2ccc(F)cc21 [Compound (I), 6′-fluoro-N-(4-fluorobenzyl)-4′-oxo-3′,4′-dihydro-1′H-spiro[piperidine-4,2′-quinoline]-1-carboxamide]
